Test results from patent publication US20220031871A1, “ANTIBODIES FOR CHELATED RADIONUCLIDES AND CLEARING AGENTS” (Hoffmann-La Roche Inc., priority 2018, published 2022).

How the values were obtained:
Format in all cases: in vivo, SCID mice
BxPC3 tumors = assay: Protocol 95: TCMC saturation, CA-to-antibody ratio, ^212Pb activity; settings: no CA, 24 h; for tumor accumulation: ±SD, n=3
From the text: In this study, nine different clearing agents based on dextran-500 were compared in terms of inhibition of ^212Pb-DOTAM association to tumors. More specifically, the experiment assessed the impact on tumor-associated radioactivity from i) TCMC saturation, ii) clearing agent-to-antibody ratio, and iii) production/purification method. In addition, the tumor uptake was compared after injection of 10 or 30 μCi of ^212Pb-DOTAM, without pretargeting or CA, to assess whether radioactivity saturation of the tumor was achieved already at the lower dose.
PRIT-0165 (100 μg per 100 μL) was administered i.v., followed three days later by dextran-500-based clearing reagents (10-170 μg per 100 μL) with varying TCMC substitution (10-100%). Groups J and K received PBS instead of clearing agent. Two hours later, mice were injected i.v. with 100 μL of the respective ^212Pb-DOTAM solutions (10 or 30 μCi).
Mice were sacrificed and necropsied 24 hours after injection of ^212Pb-DOTAM. Blood, bladder, spleen, kidneys, liver, lung, muscle, tail, and tumors were collected, weighed and measured for radioactivity content, and the % ID/g subsequently calculated.

s.c. BxPC3 tumors = assay: Protocol 146: ^212Pb-DOTAM distribution after PRIT, 5 min to 48 h
Method: Protocol 146 was designed to provide in vivo ^212Pb-DOTAM distribution data after PRIT for estimations of the absorbed radioactive dose to tumor and normal tissues, in SCID mice carrying s.c. BxPC3 tumors. The quenching of ^212Pb-DOTAM was performed using Ca (see example 34).
Pretargeting was performed by injection of CEA-DOTAM BsAb, followed 7 days later by the CA. After 24 hours, the ^212Pb-DOTAM was administered. Groups of mice were sacrificed at multiple time points from 5 minutes to 48 hours after the radioactive injection, and blood and organs harvested for radioactive measurement. […] Absorbed doses were finally calculated through established methods using the resulting time-activity curves. […]
Mice in group E and F were individually housed (i.e. one mouse per cage) in grilled-floor metabolic cages. Urine and feces were collected from each cage 2, 6, and 24 hours after the radioactive injection, and the individual samples subsequently measured for radioactivity. […]
Blood/serum was collected from all mice through retro-orbital bleeding before termination. After euthanasia, the following additional organs and tissues were harvested for radioactivity measurement and calculation of % ID/g: bladder, uterus, small intestine, colon, spleen, pancreas, kidneys, stomach, liver, lung, heart, brain, femoral bone, skin, muscle, abdominal fat, tail, and tumor.

s.c. WSU-DLCL2 tumors = assay: Protocol 162: CD20-PRIT and 1-step RIT efficacy and biodistribution; settings: multiple injections of 20 μCi (PRIT)
Method: The aim of this study was to show proof-of-concept of the treatment regimen developed for CEA-PRIT directed against an alternative target: cluster of differentiation 20 (CD20). The therapeutic efficacy was evaluated after 3 cycles of CD20-PRIT in mice bearing subcutaneous WSU-DLCL2 tumors. Comparisons were also made with: 1-step CD20-RIT, using BsAbs that were pre-incubated with ^212Pb-DOTAM before injection; with rituximab, a type I monoclonal antibody directed against CD20 and a reference in treatment of CD20+ diseases; and with GA101, a type II monoclonal antibody also directed against CD20.
Animals were treated according to the experimental schedule illustrated in FIG. 59. Solid WSU-DLCL2 xenografts were established in SCID mice aged 8 weeks on study day 0 by subcutaneous injection of 1.5×10^5 cells into the right flank. […]
Mice in groups H, I, and L were sacrificed and necropsied for biodistribution purposes 24 hours after their first and only injection of ^212Pb-DOTAM or ^212Pb-DOTAM-BsAb; groups J and K were sacrificed and necropsied 24 hours after their second and third ^212Pb-DOTAM injection, respectively. […] Collected samples were weighed and then measured for radioactivity using a 2470 WIZARD^2 automatic gamma counter (PerkinElmer), and the percent injected dose per gram of tissue (% ID/g) subsequently calculated, including corrections for decay and background. […]

NC(=O)CN1CCN(CC(N)=O)CCN(CC(N)=O)CCN(CC(N)=O)CC1.[212Pb+2] [^212Pb-DOTAM]
tumor-to-blood ratio (BxPC3 tumors; 10 μCi ^212Pb-DOTAM): 2.26±0.25
tumor accumulation (BxPC3 tumors; 10 μCi ^212Pb-DOTAM): 72.38±10.83 % ID/g
tumor-to-blood ratio (BxPC3 tumors; 30 μCi ^212Pb-DOTAM): 3.20±0.20
tumor accumulation (BxPC3 tumors; 30 μCi ^212Pb-DOTAM): 107.74±14.71 % ID/g
accumulation of radioactivity in tumor (s.c. BxPC3 tumors; 5 minutes after injection, pretargeted by CEA-DOTAM BsAb, CA): 17 % ID/g
accumulation of radioactivity in tumor (s.c. BxPC3 tumors; by 6 hours p.i., remaining for at least 48 hours): over 40%
tolerability (BW development) (s.c. WSU-DLCL2 tumors): well tolerated
